{"source": "patent US20050170391A1", "about": "“TAUT1 transporters expressed in blood brain barrier cells” (Xenoport, Inc., priority 2004, published 2005)", "key": {"TAUT1": {"target": "T1, TAUT1 (Homo sapiens, UniProt P31641)", "T1 sequence (P31641 1-620)": "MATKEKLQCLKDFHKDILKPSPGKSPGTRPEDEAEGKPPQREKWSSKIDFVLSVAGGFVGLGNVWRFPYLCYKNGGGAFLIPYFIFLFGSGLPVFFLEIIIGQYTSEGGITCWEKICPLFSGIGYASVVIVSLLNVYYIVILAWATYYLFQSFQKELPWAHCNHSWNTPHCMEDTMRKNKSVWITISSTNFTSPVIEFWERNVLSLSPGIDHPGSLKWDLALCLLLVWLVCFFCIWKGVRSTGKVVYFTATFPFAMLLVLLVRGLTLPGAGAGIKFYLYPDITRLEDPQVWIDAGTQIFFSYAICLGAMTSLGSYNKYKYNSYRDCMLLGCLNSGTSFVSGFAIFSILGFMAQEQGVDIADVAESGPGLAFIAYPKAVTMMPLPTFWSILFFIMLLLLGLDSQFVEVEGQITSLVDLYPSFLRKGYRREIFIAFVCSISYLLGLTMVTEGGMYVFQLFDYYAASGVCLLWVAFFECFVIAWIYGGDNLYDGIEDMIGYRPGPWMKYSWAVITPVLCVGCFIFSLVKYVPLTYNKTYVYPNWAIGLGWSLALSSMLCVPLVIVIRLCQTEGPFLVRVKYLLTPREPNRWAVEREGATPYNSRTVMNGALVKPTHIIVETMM", "test": "hTAUT1 competition uptake assay in HEK-TREx-TAUT1 cells", "assay_type": "cell-based", "parameters": "expressed in transfected cells; host or cells: HEK-TREx cells (HEK-TREx-TAUT1 inducible line)", "settings": "HEK-TREx-TAUT1 cells induced with tetracycline; ^3H-GABA radiolabel (taurine: ^3H-taurine per Example 9); 15 min, room temperature", "procedure": "A modified competition uptake assay was developed to determine the ability of a test compound(s) to inhibit the uptake of radiolabeled substrates into HEK-TREx-TAUT1 cells induced to over-express hTAUT. The results are stated as affinities (IC50).\nThe competition uptake assay were prepared as follows: Compounds were prepared for assay by diluting a 100 mM stock concentration (in DMSO) to the appropriate working concentration. Typically, seven-point dose response curves were prepared starting at a final assay concentration of 1 mM and carrying out three-fold dilutions. These dilutions were prepared by making a working “compound” plate that contained a 2× solution of the desired starting concentration of each test compound in duplicate in row A of a v-bottom microtiter plate. Six 3-fold serial dilutions (from row B to G) were made into the HBSS assay buffer (9.8 g/L Hank's Balance Salts (Sigma; H-1387), 2.6 g/L HEPES (10 mM) (Sigma; H-3375), 0.35 g/L NaHCO3 (4.2 mM) (Sigma; S-6297), pH to 7.4 with 5N NaOH) (with the appropriate amount of DMSO so that the DMSO concentration remains constant at all dilutions). The resulting “compound” plate contained serial dilutions of six compounds in duplicate.\n^3H-GABA was diluted into HBSS buffer to a final concentration of 4,000 cpm/μl. Enough solution was prepared to allow addition of 25 μl/well (the final concentration was 100,000 cpm/well).\nHEK-TREx-hTAUT cells, plated in 96-well plates and treated with tetracycline (or tet analog (e.g., doxycycline), were removed from the incubator. Growth media was removed from the cells, and the cells were washed twice in room temperature HBSS (100 μl/well/wash) using a 96-well plate washer (Bio Tek ELX405). Alternatively, cells were washed manually with equivalent volumes using a multichannel pipettor. Immediately before beginning the assay, the final 100 μl wash solution was removed from the cells by aspiration.\nUsing a 96-well pipettor, 25 μl from the “compound” plate was added to each well of the cell plate. The assay was started by adding 25 μl of the ^3H-GABA working solution. The plate was incubated at room temperature for 15 minutes. The assay was stopped by washing the cells four times with ice-cold HBSS buffer using a ELX 405 plate washer (100 μl buffer/well/wash) having an angled buffer dispenser.\nScintillation fluid (200 μl) (Optiphase Supermix (Perkin Elmer) was added to each well, and the plate was covered with a 96-well adhesive plate cover and placed on a shaker for 10 minutes. The plates were counted on a 96-well plate scintillation counter for 60 sec/well. The data were analyzed using a sigmoidal dose response curve-fitting program ((Prism, GraphPad, Inc, San Diego, Calif.; equation: one-site competition).\nFIG. 7 depicts the results of a competition experiment using HEK-TREx-TAUT1 cells. ^3H-taurine was used as the substrate and unlabeled taurine was used as the competitor. The competition experiment was performed as described in Example 7. Non-specific uptake was determined by measuring the uptake into cells not induced to express the transporter (“no tet”). […] In control cells, uptake of labeled taurine remained at background levels and was largely unaffected by an excess of unlabeled taurine.\nThese four compounds, IAA, R,S-Baclofen, GPA, and GABA, were tested in both competition and direct uptake assays. One notable difference in the competition assay format compared to the literature is that ^3H-GABA was used, rather than ^3H-taurine, as the radiolabel. […] Therefore, to develop a competition assay that is as sensitive as possible, ^3H-GABA, a substrate with a much […] affinity, was used."}, "[1]": {"target": "T2, mouse homolog of the transporter (TAUT1) (Mus musculus, UniProt O35316)", "T2 sequence (O35316 1-621)": "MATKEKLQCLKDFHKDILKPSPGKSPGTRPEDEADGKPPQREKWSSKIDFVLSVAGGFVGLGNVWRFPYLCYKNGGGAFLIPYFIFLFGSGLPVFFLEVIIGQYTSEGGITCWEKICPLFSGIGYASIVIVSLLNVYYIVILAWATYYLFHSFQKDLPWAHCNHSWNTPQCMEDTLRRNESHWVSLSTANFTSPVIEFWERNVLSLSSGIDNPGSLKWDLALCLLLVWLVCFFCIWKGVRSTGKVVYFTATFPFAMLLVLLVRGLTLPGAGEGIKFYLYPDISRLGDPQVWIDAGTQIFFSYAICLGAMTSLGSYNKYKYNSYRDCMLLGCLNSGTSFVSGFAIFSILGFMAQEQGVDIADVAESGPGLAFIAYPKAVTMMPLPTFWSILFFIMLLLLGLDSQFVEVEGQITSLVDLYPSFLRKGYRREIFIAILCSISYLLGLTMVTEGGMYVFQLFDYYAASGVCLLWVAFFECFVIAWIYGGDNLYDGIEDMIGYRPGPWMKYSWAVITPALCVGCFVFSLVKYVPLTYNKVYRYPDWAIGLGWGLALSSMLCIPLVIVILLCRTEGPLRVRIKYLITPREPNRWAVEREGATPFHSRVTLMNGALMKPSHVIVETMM", "settings": "literature IC50, mouse homolog of the transporter; read-out: Literature Km or IC50; cited from earlier work"}}, "data": [{"smiles": "O=C(O)Cc1c[nH]cn1", "note": "[IAA, 4-imidazole acetic acid]", "values": [{"measurement": "IC50", "setting": "TAUT1", "result": 56, "unit": "µM"}]}, {"smiles": "NCCCC(=O)O", "note": "[GABA, γ-aminobutyric acid]", "values": [{"measurement": "IC50", "setting": "[1]", "result": 500, "unit": "µM"}, {"measurement": "IC50", "setting": "TAUT1", "result": 54, "unit": "µM"}]}, {"smiles": "N=C(N)NCCC(=O)O", "note": "[GPA]", "values": [{"measurement": "IC50", "setting": "[1]", "result": 120, "unit": "µM"}, {"measurement": "IC50", "setting": "TAUT1", "result": 24, "unit": "µM"}, {"measurement": "pIC50", "setting": "TAUT1", "result": 4.7}]}, {"smiles": "NCC(CC(=O)O)c1ccc(Cl)cc1", "note": "(centres unmarked) [R,S-Baclofen]", "values": [{"measurement": "IC50", "setting": "TAUT1", "result": 1100, "unit": "µM"}, {"measurement": "pIC50", "setting": "TAUT1", "result": 3.0}]}]}
